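How tested: cells in 96-well plates exposed to compound for 48 hours at five concentrations. GI50 marks 50% less growth.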 Activity calls are given as the source filed them. Rule as the data show it: active = GI50 up to about 1.1 µM and inactive = higher.

Common to all, as to experiment: NCI anticancer screen, dose series, 48 h
Assay [1] has as its system CAKI-1.
The subject of assay [2] is DU-145.
The subject of assay [3] is KM12.
Assay [4] deals with OVCAR-8.
Assay [5] concerns HCT-15.
The test system of assay [6] is ACHN.
Assay [7] concerns SNB-75.
Assay [8] relates to 786-0.
Assay [9] deals with U-251.
Assay [10] has as its system SF-295.
Assay [11] relates to OVCAR-4.
The test system of assay [12] is RXF 393.
In assay [13] the test system is SF-539.
The subject of assay [14] is NCI-H23.
For assay [15], the system named is HOP-62.
The subject of assay [16] is OVCAR-3.
Assay [17] relates to RPMI-8226.
Assay [18] deals with UACC-62.
The test system of assay [19] is COLO 205.
For assay [20], the system named is EKVX.

As to `Cc1ccc(C(=O)N/N=C(\N=N\c2cccc([N+](=O)[O-])c2)c2ccc(N(CCC#N)CCC#N)cc2C)cc1`, the GI50 in [1] was 38.9 µM (inactive); in assay [2], 29 µM (inactive); in [3] it was 19.7 µM (inactive); in [4], 23.2 µM (inactive); in assay [5], 30.8 µM; in assay [6], 42.9 µM (inactive). The GI50 in assay [7] was 21.1 µM (inactive); in assay [8], 34.4 µM (inactive); in assay [9], 36.1 µM (inactive); in [10] it was 26.9 µM (inactive); in [11], 23.7 µM (inactive); in assay [12], 8.75 µM (inactive). Besides, the GI50 in [13] is 4.58 µM (inactive); in [14], 20.5 µM (inactive); in assay [15], 25.4 µM (inactive); in assay [16] it was 2.32 µM (inactive); in assay [17], 13 µM (inactive); in assay [18], 26.1 µM (inactive). The GI50 is 4.73 µM (inactive) in assay [19] and 25.5 µM (inactive) in [20].
Regarding `CC(C)=CCC/C(C)=C/CC/C(C)=C/CC/C(=C/CC/C(C)=C\CC/C(C)=C/CC/C(C)=C/CC/C(C)=C/Cc1cc(O)ccc1O)CO`, the GI50 in assay [1] is 1.71 µM (inactive); in assay [2] it was 32.6 µM (inactive); in [3], 1.67 µM (inactive); in assay [4], 3.75 µM (inactive); in assay [5], 7.11 µM; in [6], 12.4 µM (inactive). Also, the GI50 in [7] was 4.02 µM (inactive); in [8], 2.98 µM (inactive); in [9] it was 3.08 µM (inactive); in assay [10] it was 1.84 µM (inactive); in assay [11] it was 2.51 µM (inactive); in assay [12], 0.483 µM (active). For the same compound, the GI50 is 0.824 µM (active) in [13]; 0.979 µM (active) in [14]; 11.3 µM (inactive) in [15]; 4.42 µM (inactive) in [16]; 1.82 µM (inactive) in assay [17]; 1.18 µM (inactive) in assay [18]. Also, the GI50 is 2.28 µM (inactive) in [19] and 12.1 µM (inactive) in assay [20].

These data come from ChEMBL document CHEMBL1201862, “PubChem BioAssay data set” (2004).
